From ChEMBL document CHEMBL3046831, “Novel PCU cage diol peptides as potential targets against wild-type CSA HIV-1 protease: synthesis, biological screening and molecular modelling studies” (Med Chem Res, 2013)

Biological target: T1, Protease (Human immunodeficiency virus 1, UniProt Q9YQ12)
Experiment: Inhibition of wild type C-South African Human immunodeficiency virus 1 protease
Design: species or system C-SA

T1 sequence (Q9YQ12 whole entry): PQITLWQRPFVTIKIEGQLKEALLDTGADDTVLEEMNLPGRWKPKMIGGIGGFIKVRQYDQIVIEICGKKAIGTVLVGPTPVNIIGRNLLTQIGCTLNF

First: CC(C)[C@H](NC12OC3(O)C4C5CC(C6C5C3C61)C42)C(=O)N[C@@H](C)C(=O)O (some centres not stated)
Second: CC[C@H](C)[C@H](NC(=O)[C@H](C)NC(=O)[C@H](CCC(=O)O)NC12NC(=O)C3(O)C4C5CC(C6C5C3C61)C42)C(=O)N[C@@H](CO)C(=O)O (some centres not stated)
The IC50 of the first is 7.7-fold higher: 0.6 µM for the first, 0.078 µM for the second. The second is the more potent here.

Biological target: T1, Protease
Experiment: Inhibition of Human immunodeficiency virus 1 protease

Compound `Nc1cccc(CN2C(=O)N(Cc3cccc(N)c3)[C@H](Cc3ccccc3)[C@H](O)[C@@H](O)[C@H]2Cc2ccccc2)c1` [MOZENAVIR] has a Ki of 0.0003 µM.

Biological target: T1, Protease
Experiment: Inhibition of wild type C-South African Human immunodeficiency virus 1 protease using chromogenic peptide H-1048 as substrate by UV spectrophotometric analysis
Design: species or system C-SA

First: O=C(CC1(O)C2C3CC4C5C3C1C5C(O)(CC(=O)N[C@@H](Cc1ccccc1)C(=O)O)C42)N[C@@H](Cc1ccccc1)C(=O)O (some centres not stated)
Second: O=C(CC1(O)C2C3CC4C5C3C1C5C(O)(CC(=O)N[C@H](C(=O)O)c1ccccc1)C42)N[C@H](C(=O)O)c1ccccc1 (some centres not stated)
The IC50 of the first is higher: > 60 µM for the first, 5 µM for the second.

Going from `O=C(CC1(O)C2C3CC4C5C3C1C5C(O)(CC(=O)N[C@@H](Cc1c[nH]c3ccccc13)C(=O)O)C42)N[C@@H](Cc1c[nH]c2ccccc12)C(=O)O` (some centres not stated) to `O=C(CC1(O)C2C3CC4C5C3C1C5C(O)(CC(=O)N[C@@H](Cc1ccc(O)cc1)C(=O)O)C42)N[C@@H](Cc1ccc(O)cc1)C(=O)O` (some centres not stated), the IC50 rises from 5 µM to 10 µM (2-fold). The first is the more potent here.

`O=C(O)CN(Cc1ccccc1)C(=O)CC1(O)C2C3CC4C5C3C1C5C(O)(CC(=O)N(CC(=O)O)Cc1ccccc1)C42` (configuration not stated) and `O=C(CC1(O)C2C3CC4C5C3C1C5C(O)(CC(=O)N[C@@H](Cc1c[nH]cn1)C(=O)O)C42)N[C@@H](Cc1c[nH]cn1)C(=O)O` (some centres not stated) cannot be ordered by IC50: > 60 µM for the first, > 60 µM for the second.

`NC(=O)[C@@H]1CCCN1C(=O)CC1(O)C2C3CC4C5C3C1C5C(O)(CC(=O)N1CCC[C@H]1C(N)=O)C42` (some centres not stated) and `O=C(O)[C@@H]1CCCN1C(=O)CC1(O)C2C3CC4C5C3C1C5C(O)(CC(=O)N1CCC[C@H]1C(=O)O)C42` (some centres not stated) cannot be ordered by IC50: > 60 µM for the first, > 60 µM for the second.

`CC(C)[C@H](NC(=O)CC1(O)C2C3CC4C5C3C1C5C(O)(CC(=O)N[C@H](C(=O)O)C(C)C)C42)C(=O)O` (some centres not stated) gave an IC50 of 10 µM.
